Measured values: BindingDB's records for doi:10.1021/jm800503y (University of Queensland, 2008)
pIC50, pKi: −log10 of the molar value.

Biological target: T1, Genome polyprotein [1424-1463]/[1502-1685] (West Nile virus, UniProt P06935)
T1 construct: 1424-1463; 1502-1685
T1 sequence (P06935 whole entry) 1: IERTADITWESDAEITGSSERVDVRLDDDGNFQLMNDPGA
T1 sequence (P06935 whole entry) 2: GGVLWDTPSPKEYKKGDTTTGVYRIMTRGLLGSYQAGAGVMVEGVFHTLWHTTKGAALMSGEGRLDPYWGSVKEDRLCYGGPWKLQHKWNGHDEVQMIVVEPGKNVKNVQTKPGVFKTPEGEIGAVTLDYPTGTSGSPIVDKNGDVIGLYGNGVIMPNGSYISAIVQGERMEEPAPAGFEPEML
Experiment: In Vitro Enzyme Inhibition
Details: pH 9.5; 37 °C
Method: Inhibition of WNV protease activity was measured using recombinant WNV protease, which first incubated with inhibitor in 96-well plates. Catalysis was initiated by adding the substrate. Cleavage of the pNA chromophore from substrate produced a color change monitored at 405 nm. Optical density was measured every 30 s for 10 min by a Spectromax 250 reader, and Ki values were determined by Graphpad Prism.

Row | SMILES | pIC50 | pKi
1 | COc1ccc2cc([C@H](C)C(=O)N[C@@H](CCCCN)C(=O)N[C@@H](CCCCN)C(=O)N[C@H](C=O)CCCN=C(N)N)ccc2c1 [(2S)-6-amino-N-[(1S)-5-amino-1-{[(2S)-5-carbamimidamido-1-oxopentan-2-yl]carbamoyl}pentyl]-2-[(2S)-2-(6-methoxynaphthalen-2-yl)propanamido]hexanamide] | 6.95 | 7.70
2 | NCCCC[C@H](NC(=O)C=Cc1ccccc1)C(=O)N[C@@H](CCCCN)C(=O)N[C@H](C=O)CCCN=C(N)N [(2S)-6-amino-2-[(2S)-6-amino-2-[(2E)-3-phenylprop-2-enamido]hexanamido]-N-[(2S)-5-carbamimidamido-1-oxopentan-2-yl]hexanamide] | 6.24 | 6.98
